# Data published in patent publication US20060069132A1, “Azolecarboxamide herbicides” (priority 2004, published 2006).
# Tests used:
# [1] = tested on: barnyardgrass; test: Test B pre-/postemergence herbicide test; type: in vivo, Echinochloa crus-galli; settings: for Barnyardgrass plant response rating: postemergence, scale 0 (no effect) to 100 (complete control)
# Summary of the method: (§1)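 Evaluation is visual, comparing treated with control plants on a scale where 0 means no effect and 100 means full control. Treatments were preemergence, or postemergence on seedlings 2–18 cm tall, and held 13–15 days in the greenhouse.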
# [2] = tested on: Surinam grass; test: Test B pre-/postemergence herbicide test; type: in vivo, Urochloa decumbens; settings: for Surinam Grass plant response rating: postemergence
# Summary of the method: (§2)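 Response was scored visually 13 to 15 days after treatment against untreated greenhouse controls, 0 meaning no effect and 100 complete control. Formulations (solvent mixture plus surfactant) went onto soil after planting, onto foliage of 1- to 4-leaf plants, and onto 2-leaf plants in a flooded paddy set including rice and barnyardgrass.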
# [3] = tested on: cocklebur; test: Test B pre-/postemergence herbicide test; type: in vivo, Xanthium strumarium; settings: for Cocklebur plant response rating: postemergence, scale 0 (no effect) to 100 (complete control)
# Summary of the method: as §1
# [4] = tested on: corn; test: Test B pre-/postemergence herbicide test; type: in vivo, Zea mays; settings: for Corn plant response rating: postemergence
# Summary of the method: as §2
# [5] = tested on: large crabgrass; test: Test B pre-/postemergence herbicide test; type: in vivo, Digitaria sanguinalis; settings: for Crabgrass, Large plant response rating: postemergence
# Summary of the method: as §2
# [6] = tested on: giant foxtail; test: Test B pre-/postemergence herbicide test; type: in vivo, Setaria faberi; settings: for Foxtail, Giant plant response rating: postemergence
# Summary of the method: as §2
# [7] = tested on: lambsquarters; test: Test B pre-/postemergence herbicide test; type: in vivo, Chenopodium album; settings: for Lambsquarters plant response rating: postemergence
# Summary of the method: as §2
# [8] = tested on: morningglory; test: Test B pre-/postemergence herbicide test; type: in vivo, Ipomoea coccinea; settings: for Morningglory plant response rating: postemergence
# Summary of the method: as §1
# [9] = tested on: pigweed; test: Test B pre-/postemergence herbicide test; type: in vivo, Amaranthus retroflexus; settings: for Pigweed plant response rating: postemergence
# Summary of the method: as §2
# [10] = tested on: rice; test: Test B pre-/postemergence herbicide test; type: in vivo, Oryza sativa; settings: 0 = no effect, 100 = complete control, preemergence
# Summary of the method: as §2
# [11] = tested on: velvetleaf; test: Test B pre-/postemergence herbicide test; type: in vivo, Abutilon theophrasti; settings: for Velvetleaf plant response rating: postemergence
# Summary of the method: as §2
# [12] = tested on: blackgrass; test: Test B postemergence herbicide test; type: in vivo, Alopecurus myosuroides; settings: postemergence, visual rating, scale 0 (no effect) to 100 (complete control)
# Summary of the method: (§3)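 Each value is a visual 0–100 response rating taken against controls 13 to 15 days after treatment in the greenhouse. Plants received formulated chemical postemergence at the 1- to 4-leaf stage or, in flooded paddy, at the 2-leaf stage.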
# [13] = tested on: wheat; test: Test B postemergence herbicide test; type: in vivo, Triticum aestivum; set-up: key to Wheat plant response rating: 0 = no effect, 100 = complete control; settings: postemergence
# Summary of the method: (§4)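 Postemergence plants were sprayed with formulated test chemicals at 2 to 18 cm height (1- to 4-leaf stage); paddy species were grown to the 2-leaf stage. After 13 to 15 days in a greenhouse, injury was rated visually against untreated controls on a 0–100 scale (0 = no effect, 100 = complete control).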
# [14] = tested on: wild oat; test: Test B postemergence herbicide test; type: in vivo, Avena fatua; settings: postemergence
# Summary of the method: as §4
# [15] = tested on: rice; test: Test B flooded paddy test; type: in vivo, Oryza sativa; settings: 1000 g ai/ha, scale 0 to 100 (0 no effect, 100 complete control)
# Summary of the method: as §4
# [16] = tested on: small flower umbrella sedge; test: Test B flooded paddy test; type: in vivo, Cyperus difformis; settings: 1000 g ai/ha, scale 0 to 100 (0 no effect, 100 complete control)
# Summary of the method: as §3
# [17] = tested on: ducksalad; test: Test B flooded paddy test; type: in vivo, Heteranthera limosa; settings: 1000 g ai/ha, scale 0 to 100 (0 no effect, 100 complete control)
# Summary of the method: as §3
# [18] = tested on: barnyardgrass; test: Test B flooded paddy test; type: in vivo, Echinochloa crus-galli; settings: 1000 g ai/ha, scale 0 to 100 (0 no effect, 100 complete control)
# Summary of the method: as §3
# [19] = tested on: rice; test: Test C flooded paddy test; type: in vivo, Oryza sativa
# Summary of the method: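 Plants were grown to the 1- to 4-leaf stage (2–18 cm) and then treated postemergence, or grown to the 2-leaf stage for the flooded paddy test. They were held in a greenhouse for 12 to 14 days and then scored by eye against controls, where 0 is no effect and 100 is complete control.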
# [20] = tested on: smallflower umbrella sedge; test: Test C flooded paddy test; type: in vivo, Cyperus difformis
# [21] = tested on: ducksalad; test: Test C flooded paddy test; type: in vivo, Heteranthera limosa
# [22] = tested on: barnyardgrass; test: Test C flooded paddy test; type: in vivo, Echinochloa crus-galli
# Summary of the method: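 Postemergence sprays applied to plants 2 to 18 cm tall (1- to 4-leaf stage); paddy species grown to 2-leaf stage under flooding. After 12 to 14 days in greenhouse, visual rating versus untreated controls on 0–100 scale (0 no effect, 100 complete control).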
# [23] = 125 g ai/ha, 0 = no effect, 100 = complete control, preemergence
# [24] = 500 g ai/ha, visual rating, 0 = no effect, 100 = complete control, preemergence
# [25] = 125 g ai/ha, visual rating, scale 0 (no effect) to 100 (complete control)
# [26] = 500 g ai/ha, scale 0 to 100, 0 is no effect, 100 is complete control
# [27] = 125 g ai/ha, scale 0 to 100 (0 no effect, 100 complete control)
# [28] = 250 g ai/ha, scale of 0 to 100, 0 is no effect, 100 is complete control
# [29] = 500 g ai/ha, visual rating after 12 to 14 days, scale 0 to 100 (0 no effect, 100 complete control)
compound,measurement,setting,value
CCn1nc(C(C)(C)C)cc1C(=O)Nc1cncc(C(=O)N(C)C)c1 [Compound 258],Barnyardgrass plant response rating (0 to 100 scale),[1]; [23],70
same,"Plant response rating, Barnyardgrass",[1]; [24],90
same,Barnyardgrass plant response rating,"[1]; 125 g ai/ha, visual rating",0
same,Barnyardgrass plant response rating,"[1]; 500 g ai/ha, visual rating",0
same,Surinam Grass plant response rating (0 to 100 scale),[2]; [23],0
same,"Plant response rating, Surinam Grass",[2]; [24],30
same,Surinam Grass plant response rating,[2]; [25],0
same,Surinam Grass plant response rating,[2]; [26],10
same,Cocklebur plant response rating (0 to 100 scale),[3]; [23],0
same,"Plant response rating, Cocklebur",[3]; [24],0
same,Cocklebur plant response rating,"[3]; 125 g ai/ha, visual rating",20
same,Cocklebur plant response rating,"[3]; 500 g ai/ha, visual rating",30
same,Corn plant response rating (0 to 100 scale),[4]; [23],0
same,"Plant response rating, Corn",[4]; [24],0
same,Corn plant response rating,[4]; [25],0
same,Corn plant response rating,[4]; [26],10
same,"Crabgrass, Large plant response rating (0 to 100 scale)",[5]; [23],10
same,"Plant response rating, Crabgrass, Large",[5]; [24],50
same,"Crabgrass, Large plant response rating",[5]; [25],0
same,"Crabgrass, Large plant response rating",[5]; [26],0
same,"Foxtail, Giant plant response rating (0 to 100 scale)",[6]; [23],0
same,"Plant response rating, Foxtail, Giant",[6]; [24],20
same,"Foxtail, Giant plant response rating",[6]; [25],0
same,"Foxtail, Giant plant response rating",[6]; [26],0
same,"Plant response rating, Lambsquarters",[7]; [24],100
same,Lambsquarters plant response rating,[7]; [25],30
same,Lambsquarters plant response rating,[7]; [26],70
same,Morningglory plant response rating (0 to 100 scale),[8]; [23],0
same,"Plant response rating, Morningglory",[8]; [24],10
same,Morningglory plant response rating,[8]; [25],0
same,Morningglory plant response rating,[8]; [26],10
same,Pigweed plant response rating (0 to 100 scale),[9]; [23],0
same,"Plant response rating, Pigweed",[9]; [24],100
same,Pigweed plant response rating,[9]; [25],50
same,Pigweed plant response rating,[9]; [26],60
same,Rice plant response rating (0 to 100 scale),[10]; 125 g ai/ha,20
same,"Plant response rating, Rice","[10]; 500 g ai/ha, visual rating",90
same,Velvetleaf plant response rating (0 to 100 scale),[11]; [23],0
same,"Plant response rating, Velvetleaf",[11]; [24],60
same,Velvetleaf plant response rating,[11]; [25],0
same,Velvetleaf plant response rating,[11]; [26],0
same,Blackgrass plant response rating,[12]; 125 g ai/ha,10
same,Blackgrass plant response rating,[12]; 500 g ai/ha,10
same,Wheat plant response rating,[13]; [25],20
same,Wheat plant response rating,[13]; [26],20
same,"Oat, Wild plant response rating",[14]; [25],20
same,"Oat, Wild plant response rating",[14]; [26],30
same,Rice plant response rating,[15],80
same,"Sedge, Umbrella plant response rating",[16],70
same,Ducksalad plant response rating,[17],90
same,Barnyardgrass plant response rating,[18],70
same,Rice plant response rating,"[19]; 62 g ai/ha, scale 0 to 100",0
same,Rice plant response rating,[19]; [27],0
same,Rice plant response rating,[19]; [28],5
same,"Plant response rating, Rice",[19]; [29],70
same,"Sedge, Umbrella plant response rating","[20]; 62 g ai/ha, scale 0 to 100",0
same,"Sedge, Umbrella plant response rating",[20]; [27],20
same,"Sedge, Umbrella plant response rating",[20]; [28],70
same,"Plant response rating, Sedge, Umbrella",[20]; [29],80
same,Ducksalad plant response rating,"[21]; 62 g ai/ha, scale 0 to 100",15
same,Ducksalad plant response rating,[21]; [27],45
same,Ducksalad plant response rating,[21]; [28],70
same,"Plant response rating, Ducksalad",[21]; [29],90
same,Barnyardgrass plant response rating,"[22]; 62 g ai/ha, scale 0 to 100 (0 no effect, 100 complete control)",0
same,Barnyardgrass plant response rating,[22]; [27],0
same,Barnyardgrass plant response rating,[22]; [28],15
same,"Plant response rating, Barnyardgrass",[22]; [29],45
